Data: patent US4547496A, “Antiulcer [1] benzepino[3,4-b]pyridine and compositions” (Kyowa Hakko Kogyo Co., Ltd., priority 1983, dated 1985)

How the values were obtained:
[1] = system: male dd-strain mice; assay: Test for acute toxicity (minimum lethal dose, 7-day mortality); format: in vivo; settings: mortality observed for 7 days; for Acute MLD ip: intraperitoneal
Experimental: Groups of 5 male dd-strain mice weighing 19 to 21 g were used. The present compounds were administered either orally (0.3 mg/g) or intraperitoneally (0.1 mg/g).
The MLD (minimum lethal dose) was determined by observing the mortality for 7 days after the administration.

[2] = system: Male Donryu-strain rats; assay: Test for antiulcer activity (restraint and water immersion stress ulcer, lesion index of glandular stomach); format: in vivo; settings: Rattus norvegicus, water immersion at 23±1° C. for 7 hours, read-out: Ulcer-inhibition Rate; for inhibition in vivo at 30 mg/kg: po: 30 mg/kg; for inhibition in vivo at 100 mg/kg: po: 100 mg/kg
Experimental: Test for antiulcer activity
Male Donryu-strain rats weighing 190 to 210 g were starved for 17 hours prior to the test.
Immediately, after an oral administration of the present compounds (30 mg/kg or 100 mg/kg), the rats were immobilized in the stress cage devised by Takagi et al. [Jap. J. Pharmacol., 18, 9 (1968)]. The cage was then immersed vertically in a water bath at 23±1° C. for 7 hours to the height of xiphoid process.
Each rat was then killed with carbon dioxide gas and its stomach was removed. The lengths of the lesions developed on the glandular stomach were summed to give a lesion index for each rat.
Four or five rats were used for each group. The test compounds were dissolved in saline or dissolved or suspended in saline with a suitable amount of polyethylene glycol-400 added or not added. The ulcer-inhibitionrate of each compound was calculated from the following formula by comparing the lesion index of the test group with that of the control group [administered with only the solvent (saline with polyethylene glycol-400 added or not added)]. [formula]

## CCN(CC)CCNC1c2ccccc2OCc2ncccc21 (stereo not drawn) [Compound 1, 5-[2-(Diethylamino)ethyl]amino-5,11-dihydro[1]benzoxepino[3,4-b]pyridine]
[1]
  Acute MLD ip: > 100 mg/kg
  Acute MLD po: > 300 mg/kg
[2]
  inhibition in vivo at 30 mg/kg: 85%

## CN(C)CCNC1c2ccccc2OCc2ncccc21 (stereo not drawn) [Compound 5, 5-[2-(Dimethylamino)ethyl]amino-5,11-dihydro[1]benzoxepino[3,4-b]pyridine]
[1]
  Acute MLD ip: > 100 mg/kg
  Acute MLD po: > 300 mg/kg
[2]
  inhibition in vivo at 30 mg/kg: 78%

## CCN(CC)CCCNC1c2ccccc2OCc2ncccc21 (stereo not drawn) [Compound 7, 5-[3-(Diethylamino)propyl]amino-5,11-dihydro[1]benzoxepino[3,4-b]pyridine]
[1]
  Acute MLD ip: > 100 mg/kg
  Acute MLD po: > 300 mg/kg
[2]
  inhibition in vivo at 30 mg/kg: 55%

## c1ccc2c(c1)OCc1ncccc1C2NCCN1CCCC1 (stereo not drawn) [Compound 13, 5-[2-(1-Pyrrolidinyl)ethyl]amino-5,11-dihydro[1]benzoxepino[3,4-b]pyridine]
[1]
  Acute MLD ip: > 100 mg/kg
  Acute MLD po: > 300 mg/kg
[2]
  inhibition in vivo at 30 mg/kg: 72%

## c1ccc2c(c1)OCc1ncccc1C2NCCN1CCOCC1 (stereo not drawn) [Compound 15, 5-[2-(Morpholino)ethyl]amino-5,11-dihydro[1]benzoxepino[3,4-b]pyridine]
[1]
  Acute MLD ip: > 100 mg/kg
  Acute MLD po: > 300 mg/kg
[2]
  inhibition in vivo at 30 mg/kg: 73%

## CN1CCN(C2c3ccccc3OCc3ncccc32)CC1 (stereo not drawn) [Compound 20, 5-[1-(4-Methyl)piperazinyl]-5,11-dihydro[1]benzoxepino[3,4-b]pyridine]
[1]
  Acute MLD ip: > 100 mg/kg
  Acute MLD po: > 300 mg/kg
[2]
  inhibition in vivo at 30 mg/kg: 67%

## CC(C)N(CCNC1c2ccccc2OCc2ncccc21)C(C)C (stereo not drawn) [Compound 24, 5-[2-(Diisopropylamino)ethyl]amino-5,11-dihydro[1]benzoxepino[3,4-b]pyridine]
[1]
  Acute MLD ip: > 100 mg/kg
  Acute MLD po: > 300 mg/kg
[2]
  inhibition in vivo at 30 mg/kg: 88%

## CC(C)N(CC(=O)NC1c2ccccc2OCc2ncccc21)C(C)C (stereo not drawn) [Compound 27, 5,11-Dihydro-5-[(N,N--diisopropylamino)acetyl]amino[1]benzoxepino[3,4-b]pyridine]
[1]
  Acute MLD ip: > 100 mg/kg
  Acute MLD po: > 300 mg/kg
[2]
  inhibition in vivo at 100 mg/kg: 79%

## CCN(CC)CC(=O)NC1c2ccccc2OCc2ncccc21 (stereo not drawn) [Compound 28, 5-[(N,N--diethylamino)acetyl]amino-5,11-dihydro[1]benzoxepino[3,4-b]pyridine]
[1]
  Acute MLD ip: > 100 mg/kg
  Acute MLD po: > 300 mg/kg
[2]
  inhibition in vivo at 100 mg/kg: 98%

## CN1CCN(CC(=O)NC2c3ccccc3OCc3ncccc32)CC1 (stereo not drawn) [Compound 29, 5,11-Dihydro-5-[(4-methyl-1-piperazinyl)acetyl]amino[1]benzoxepino[3,4-b]pyridine]
[1]
  Acute MLD ip: > 100 mg/kg
  Acute MLD po: > 300 mg/kg
[2]
  inhibition in vivo at 100 mg/kg: 64%

## CNC(=O)N(C)C1c2ccccc2OCc2ncccc21 (stereo not drawn) [Compound 31, 1-(5,11-Dihydro[1]benzoxepino[3,4-b]pyridin-5-yl)1,3-dimethylurea]
[1]
  Acute MLD ip: > 100 mg/kg
  Acute MLD po: > 300 mg/kg
[2]
  inhibition in vivo at 100 mg/kg: 93%

## CCNC(=O)N(CC)C1c2ccccc2OCc2ncccc21 (stereo not drawn) [Compound 36, 1-(5,11-Dihydro[1]benzoxepino[3,4-b]pyridin-5-yl)1,3-diethylurea]
[1]
  Acute MLD ip: > 100 mg/kg
  Acute MLD po: > 300 mg/kg
[2]
  inhibition in vivo at 100 mg/kg: 81%
